Test results taken from patent publication US10662164B2, “Non-beta lactam antibiotics” (University of Notre Dame du Lac, priority 2014, dated 2020).
Values after ≈ are worked out from the molar mass of the structure shown. Read-outs that look alike come from different tables or passages of the source. Marks after values point to notes of the source that are not given here.

What was measured:
S. aureus ATCC 29213 = assay: MIC determination; format: cell-based, Staphylococcus aureus; details: for MIC: Staphylococcus aureus
E. faecalis 201 (Van S) = assay: MIC determination; format: cell-based; details: Enterococcus faecalis
Description: (§1) The ESKAPE organisms (E. faecium NCTC (ATCC 19734), S. aureus ATCC 29213, K. pneumonia ATCC 700603, A. baumannii ATCC 17961, P. aeruginosa ATCC 17853, E. aerogenes ATCC 35029) and E. coli ATCC 25922) in the initial screen, S. aureus ATCC 27660, S. epidermis ATCC 35547, S. haemolyticus ATCC 29970, S. oralis ATCC 9811, S. pyogenes ATCC 49399, B. cereus ATCC 13061, B. licheniformis ATCC 12759, and E. faecalis ATCC 29212 were purchased from the American Type Culture Collection (Manassas, Va., USA). S. aureus strains NRS100, NRS119, NRS120, VRS1, and VRS2 were obtained from the Network on Antimicrobial Resistance in Staphylococcus aureus (Chantilly, Va., USA). E. faecalis strains 201 and 99, and E. faecium strains 119-39A and 106 were collected from Wayne State University School of Medicine.
(§2) The procedure for MIC determination was the same as previously reported (Tran et al., Am. J. Clin. Dermatol. 2015; doi 10.1007/S40257-015-0125-9).

E. faecium 106 (Van R) = assay: MIC determination; format: cell-based; details: Enterococcus faecium; vancomycin-resistant clinical isolate; Tables 1 and 5; read-out: MIC
Description: as §1, §2

S. aureus ATCC 27660 [1] = assay: MIC determination; format: cell-based; details: Staphylococcus aureus, ATCC27660
Description: as §1, §2

[2] = Fast pharmacokinetic (PK) studies; format: in vivo, mouse
Experimental: To rapidly ascertain the PK properties of the compounds, fast PK studies were conducted. These studies involve administration of the compounds using a limited number of animals (n=2 mice per time point) for a few time points. This allows us to rapidly compare the preliminary PK properties of the compounds, so that full PK studies are conducted only with the most promising compound(s). […] The alkyne substituted pyrazole 66b had the lowest clearance and the highest systemic exposure, as measured by area under the curve (AUC, Table 2).
(§3) Female ICR mice (6-8 weeks old, ˜20-g body weight) were used for the PK and peritonitis studies. Animals were purchased from Harlan Laboratories, Inc. (Indianapolis, Ind., USA) and given Teklad 2019 Extruded Rodent Diet and water ad libitum. Mice were maintained in polycarbonate shoebox cages with ¼″ corncob (The Andersons Inc., Maumee, Ohio) and Alpha-dri (Sheperd Specialty Papers, Inc., Richland, Mich.) bedding under 12-h light/12-h dark cycle at 72±2° F.
For fast PK studies, the compounds were dissolved in 10% DMSO/25% Tween-80/65% water at a concentration of 5 mg/mL. The dosing formulations were sterilized by filtration through a 0.2 μm, 13 mm diameter PTFE membrane attached to an Acrodisc syringe filter (Pall Life Sciences, Ann Arbor, Mich., USA). […] Terminal blood was collected at 5 min, 40 min, 2 h, 4 h, and 8 h; blood was centrifuged at 1200 g for 10 min to harvest plasma.
Plasma ([…], aliquot) was mixed with 100 μL of acetonitrile containing internal standard (final concentration 8 μg/mL). After centrifugation at 10000 g for 10 min, the supernatant was analyzed by ultraperformance liquid chromatography (UPLC) with UV detection at 285 nm. A Waters Acquity UPLC System (Waters Corporation, Milford, Mass., USA), consisting of a binary pump, an autosampler, a column heater, and a photodiode array detector was used. An Acquity UPLC C18 1.7 μm, 2.1 mm i.d.×50 mm column was used. Elution was at 0.5 mL/min with 70% A/30% B for 2 min, followed by a 10-min linear gradient to 10% A/90% B, then 70% A/30% B for 2 min, where A=0.1% formic acid/water and B=0.1% formic acid/acetonitrile. Monitoring was by UV detection at 285 nm. Calibration curves for each compound were prepared in control plasma containing internal standard. The concentrations in the PK samples were obtained using peak area ratio to the internal standard and the calibration curve regression analysis parameters. The methods were linear from 0.01 to 100 μg/mL; coefficients of determination R^2 range from 0.98 to 0.99.
The area under the curve (AUC), clearance (CL), volume of distribution (Vd), and terminal half-life were calculated using Phoenix WinNonlin 6.3 (Certara LP, St Louis, Mo., USA) noncompartmental analysis using uniform weighing. Half-lives were estimated from the linear portion of the initial or terminal phase of the concentration-time data by linear regression, where the slope of the line was the rate constant k and t1/2=ln 2/k.

S. aureus ATCC 27660 [3] = assay: Mouse peritonitis model of infection; format: in vivo; details: for Mouse peritonitis (survived/total): iv at 20 mg/kg at 30 min and 7.5 h after infection, survival at 48 h
Experimental: Compounds 60b, 60c, 65b, 66b, 75b and 76b were evaluated in the mouse peritonitis model of infection (Table 2). We used the ICR out-bred strain of mice that provides a heterogeneous population, similar to the human situation, thus, ensuring the relevance of the antibacterial effect. This animal model of infection is widely used, it is easy to carry out, and the end points (death or survival) are rapidly assessed, making it less resource-intensive compared to other infection models. In addition, excellent correlation between MIC and ED50 has been shown for 14 β-lactam antibiotics using this model (Kratochwil et al., Biochem. Pharmacol. 2002, 64, 1355). The mouse peritonitis infection model continues to be an important model for evaluation of the efficacy of antibiotics against human pathogens. We use the iv route of administration in initial efficacy studies, as this allows us to test the efficacy without knowledge of the oral bioavailability of the lead. Evaluation was done at 20 mg/kg.
as §3
The mouse peritonitis model was used with S. aureus ATCC 27660, as described previously (Tran et al., Am. J. Clin. Dermatol. 2015; doi 10.1007/S40257-015-0125-9). The final bacterial inocula contained 5×10^7 cfu/mL and 5% mucin (Sigma-Aldrich Chemical Co., St Louis, Mo., USA). Just prior to inoculation, bacteria at 10^8 cfu/mL were mixed 1:1 with 10% mucin. Mice (n=6 per group) were given 0.5 mL of the bacterial inocula intraperitoneally. Mice were given two iv doses of the compounds at 30 min and 7.5 h after infection by tail vein injection. […] Mice were monitored for 48 h, at which time the number of surviving mice were counted.
The effective dose that results in survival of 50% of the mice was determined using Probit analysis (XLSTAT, New York, N.Y.). Groups of six mice per dose level were evaluated in the mouse peritonitis infection model at iv doses of 2.5, 5, 7.5, 10, 15, and 20 mg/kg and after po doses at 2.5, 5, 10, 20, and 40 mg/kg. […]

[4] = ATCC29213, Table 3.1 and SAR text, compounds of Schemes 2-4, read-out: S. aureus ATCC 29213 MIC
[5] = ATCC29213, quality-control, methicillin-susceptible strain, Tables 1 and 5, read-out: MIC
[6] = vancomycin-susceptible clinical isolate, Tables 1 and 5, read-out: MIC
[7] = mecA positive, resistant to methicillin, oxacillin, tetracycline, Tables 1 and 5, read-out: MIC
[8] = Staphylococcus aureus, ATCC27660, iv, 2 doses given at 30 min and 7.5 h after infection, read-out: ED50
[9] = Staphylococcus aureus, ATCC27660, po, single dose given at 1 h after infection, read-out: ED50
[10] = single iv dose at 20 mg/kg, mice

Structure (SMILES)	MIC (S. aureus ATCC 29213; [4]) [µg/mL]	MIC (S. aureus ATCC 29213; [5]) [µg/mL]	MIC (E. faecalis 201 (Van S); [6]) [µg/mL]	MIC (E. faecium 106 (Van R)) [µg/mL]	MIC (S. aureus ATCC 27660 [1]; [7]) [µg/mL]	AUC0-8 h [2, 10] [µg·min/mL]	CL [2, 10] [mL/min/kg]	Mouse peritonitis (survived/total) (S. aureus ATCC 27660 [3])	further results
Oc1ccc(-c2nc(-c3ccc(Oc4ccc(C(F)(F)F)cc4)cc3)no2)cc1 [Compound 1]	1 (≈ 2.51 µM)	2 (≈ 5.02 µM)	2 (≈ 5.02 µM)	2 (≈ 5.02 µM)	2 (≈ 5.02 µM)	–	–	–	AUC(0-t) ([2]; ICR, mouse, plasma, compound 1 at 50 mg/kg iv, read-out: AUC0-8 h): 44200 ng·h/mL; CL ([2]; compound 1 at 50 mg/kg iv): 18.9^c mL/min/kg; ED50 (S. aureus ATCC 27660 [3]; [8]): 40 mg/kg; ED50 (S. aureus ATCC 27660 [3]; [9]): 44 mg/kg
FC(F)(F)c1ccc(Oc2ccc(-c3noc(-c4n[nH]cc4Cl)n3)cc2)cc1 [Compound 60b, 5-(4-Chloro-1H-pyrazol-3-yl)-3-(4-(4-(trifluoromethyl)phenoxy)phenyl)-1,2,4-oxadiazole]	1 (≈ 2.46 µM)	–	> 128	> 128	2 (≈ 4.92 µM)	910	22.0	4/6	–
Fc1ccc(Oc2ccc(-c3noc(-c4n[nH]cc4Cl)n3)cc2)cc1 [Compound 60c, 5-(4-Chloro-1H-pyrazol-3-yl)-3-(4-(4-fluorophenoxy)phenyl)-1,2,4-oxadiazole]	0.5 (≈ 1.4 µM)	1 (≈ 2.8 µM)	> 128	> 128	–	446	44.9	2/6	–
CC(C)Nc1c[nH]nc1-c1nc(-c2ccc(Oc3ccc(C(F)(F)F)cc3)cc2)no1 [Compound 65b, N-Isopropyl-3-(3-(4-(4-(trifluoromethyl)phenoxy)phenyl)-1,2,4-oxadiazol-5-yl)-1H-pyrazol-4-amine]	–	–	–	–	–	1313	15.2	1/6	MIC (S. aureus ATCC 29213; ATCC29213): 0.5 µg/mL (≈ 1.16 µM); MIC (S. aureus ATCC 29213; ATCC29213, read-out: S. aureus ATCC 29213 MIC): 0.5 µg/mL (≈ 1.16 µM); MIC (E. faecalis 201 (Van S)): > 128 µg/mL; MIC (S. aureus ATCC 27660 [1]): 0.5 µg/mL (≈ 1.16 µM)
C#Cc1c[nH]nc1-c1nc(-c2ccc(Oc3ccc(C(F)(F)F)cc3)cc2)no1 [Compound 66b, 5-(4-Ethynyl-1H-pyrazol-3-yl)-3-(4-(4-(trifluoromethyl)phenoxy)phenyl)-1,2,4-oxadiazole]	0.25 (≈ 0.631 µM)	–	> 128	–	0.5 (≈ 1.26 µM)	8261	2.4	2/6	S. aureus ATCC 29213 MIC (S. aureus ATCC 29213; Table 3.1, compounds of Schemes 2-4): 0.25 µg/mL
FC(F)(F)c1ccc(Oc2ccc(-c3noc(-c4ccc5[nH]ccc5c4)n3)cc2)cc1 [Compound 75b, 5-(1H-Indol-5-yl)-3-(4-(4-(trifluoromethyl)phenoxy)phenyl)-1,2,4-oxadiazole]	4 (≈ 9.49 µM)	2 (≈ 4.75 µM)	–	–	–	1283	15.2	5/6	ED50 (S. aureus ATCC 27660 [3]; [8]): 7.6 mg/kg; ED50 (S. aureus ATCC 27660 [3]; Staphylococcus aureus, ATCC27660, po, 2 doses given at 30 min and 7.5 h after infection, read-out: ED50): 1.7 mg/kg; ED50 (S. aureus ATCC 27660 [3]; [9]): 3.1 mg/kg; ED50 (S. aureus ATCC 27660 [3]; iv, 2 doses given at 30 min and 7.5 h after infection): 7.6 mg/kg; ED50 (S. aureus ATCC 27660 [3]; po, 2 doses given at 30 min and 7.5 h after infection): 1.7 mg/kg; ED50 (S. aureus ATCC 27660 [3]; po, single dose given at 1 h after infection): 3.1 mg/kg; ED50, fold better than that of 1 (S. aureus ATCC 27660 [3]; single po dose given at 1 h after infection): 14 fold
FC(F)(F)c1ccc(Oc2ccc(-c3noc(-c4c[nH]cn4)n3)cc2)cc1 [Compound 76b, 5-(1H-Imidazol-4-yl)-3-(4-(4-(trifluoromethyl)phenoxy)phenyl)-1,2,4-oxadiazole]	2 (≈ 5.37 µM)	–	–	–	–	2054	9.7	3/6	–
